Measurements taken from US20220008445A1, “METHODS, COMPOSITIONS, AND KITS FOR TREATING OCULAR DISEASES” (ELOXX PHARMACEUTICALS, priority 2018, published 2022).

Legend:
retinal cultures = experiment: Cytotoxicity in retinal cultures (staining profile); type: cell-based
Procedure: The cytotoxicity of NB30, NB54, NB84, NB122, NB124, and NB127 was evaluated in retinal cultures.

[1] = tested on: nonsense mutation R262X in the Oca2 gene; experiment: Read-through after intravitreal injection in albino mice (melanin production); type: in vivo, SJL/J mice
Procedure: Read-through activity following intravitreal injection of aminoglycosides was evaluated in animal models.
Albino mice (SJL/J mice) harbor the nonsense mutation R262X in the Oca2 gene resulting in an absence of melanin production in melanocytes. This model provides an initial evaluation of compound availability to the back of the eye when administered by intravitreal injection—higher concentrations of melanin correspond to greater read-through activity.
NB122, NB124, NB124-MeS, NB84, NB118, NB127, NB128, and NB157 were evaluated for read-through activity following intravitreal injection into SJL/J mice. FIGS. 20-21 show intravitreal read-through for each compound relative to gentamicin.

retina = settings: have been reported; cited from earlier work
[2] = intravitreal, human; cited from earlier work
[3] = tested on: healthy New Zealand white rabbits; experiment: Single-dose intravitreal tolerability, ERG and histology; type: in vivo; settings: nine days after single 300 μg or 600 μg intravitreal injection
Procedure: Biocompatibility and pharmacokinetic/pharmacodynamic profiles were then evaluated for intravitreal injection of NB118 versus gentamicin. Single-dose tolerability was screened in healthy New Zealand white rabbits and evaluated based on ERG and histology. Dark-adapted oscillatory potential and photopic b-wave amplitudes were measured pre- and nine-days post a single 300 μg or 600 μg injection of aminoglycoside as shown in FIG. 2.
Results were confirmed by a veterinary pathologist.

| Compound | staining profile versus untreated retinal cultures (retinal cultures) | melanin ([1]; 0.2 μg intravitreal, t-test vs. vehicle control) | dose at which toxicity observed ([1]; intravitreal, pilot study FIG. 19) [µg] | reported retinal toxicities (retina) | half-life [2] [h] | dark-adapted oscillatory potential peaks (ERG) [3] | photopic b-wave potentials (ERG) [3] |
| --- | --- | --- | --- | --- | --- | --- | --- |
| NCC[C@H](O)C(=O)N[C@@H]1CC(N)[C@@H](O[C@H]2OC(CO)[C@@H](O)[C@H](O)C2N)[C@H](O[C@@H]2O[C@H](CN)[C@H](O)C2O)C1O (stereo partly shown) [NB54] | did not significantly differ | – | – | – | – | – | – |
| gentamicin [reference compound] | – | increases melanin | 0.5 | dose-limiting retinal toxicities | 40 to 60 | ablation | moderate reduction |
